Assay [1] relates to ALOMY. Briefly: Herbicidal pre-emergence action, section C (Table C2). The assay is classed as in vivo, Alopecurus myosuroides. As to conditions: application rate 320 g/ha; visual grading after ca. 3 weeks.
The subject of assay [2] is AMARE. Nature of the assay: Herbicidal pre-emergence action, section C (Table C3). The assay is classed as in vivo, Amaranthus retroflexus. As to conditions: application rate 320 g/ha; visual grading after ca. 3 weeks.
Text: Seeds of mono- and dicotyledonous weed plants and crop plants were sown, in plastic or organic planting pots, in sandy loam and covered with soil. The compounds according to the invention, formulated in the form of wettable powders (WP) or as emulsifiable concentrates (EC), were applied to the surface of the covering soil as aqueous suspension or emulsion, with the addition of 0.5% of an additive, at an application rate of 600 1 of water/ha (converted). Following treatment, the pots were placed in a greenhouse and kept under optimum growth conditions for the test plants.
Assay [3] has as its system DIGSA. Briefly: Herbicidal pre-emergence action, section C (Table C5). The format is in vivo, Digitaria sanguinalis. Conditions: application rate 320 g/ha; visual grading after ca. 3 weeks.
Assay [4] deals with ECHCG. Nature of the assay: Herbicidal pre-emergence action, section C (Table C6). The format is in vivo, Echinochloa crus-galli. As to conditions: application rate 320 g/ha; visual grading after ca. 3 weeks.
Assay [5] relates to ABUTH. Briefly: Herbicidal pre-emergence action (Table A1). The format is in vivo, Abutilon theophrasti. As to conditions: application rate 1280 g/ha; visual grading after ca. 3 weeks vs untreated controls (100% = plants have died off, 0% = as control plants). In short, it runs like this: (§1)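 One monocotyledonous and one dicotyledonous weed species shared each pot. Seeds were sown in sandy loam and covered over with soil.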

The test system of assay [6] is ECHCG. Nature of the assay: Herbicidal pre-emergence action (Table A2). The assay is classed as in vivo, Echinochloa crus-galli. Conditions: application rate 1280 g/ha; visual grading after ca. 3 weeks. In short, it runs like this:
as §1

Assay [7] deals with LOLRI. Nature of the assay: Herbicidal pre-emergence action (Table A3). Conditions: Lolium rigidum, pre-emergence, 504 h, application rate 1280 g/ha; visual grading after ca. 3 weeks; read-out: pre-emergence activity against LOLRI. The assay is classed as in vivo, Lolium rigidum. An outline of the steps:
as §1

In the next assay the test system is MATIN. Nature of the assay: Herbicidal pre-emergence action (Table A4). Conditions: application rate 1280 g/ha; visual grading after ca. 3 weeks. The assay is classed as in vivo, Matricaria inodora. An outline of the steps: as §1
For assay [8], the system named is SETVI. Briefly: Herbicidal pre-emergence action (Table A5). The assay is classed as in vivo, Setaria viridis. Conditions: application rate 320 g/ha; visual grading after ca. 3 weeks. In short, it runs like this: as §1
The test system of assay [9] is STEME. Nature of the assay: Herbicidal pre-emergence action (Table A6). The format is in vivo, Stellaria media. As to conditions: application rate 320 g/ha; visual grading after ca. 3 weeks. An outline of the steps:
as §1

Assay [10] relates to POAAN. Nature of the assay: Herbicidal pre-emergence action (Table A7). The assay is classed as in vivo, Poa annua. As to conditions: Poa annua, pre-emergence, 504 h; application rate 320 g/ha; visual grading after ca. 3 weeks; read-out: pre-emergence activity against POAAN. In short, it runs like this:
as §1

Assay [11] deals with AMARE. Briefly: Herbicidal pre-emergence action (Table A8). The assay is classed as in vivo, Amaranthus retroflexus. Conditions: application rate 320 g/ha; visual grading after ca. 3 weeks vs untreated controls (100% = plants have died off, 0% = as control plants). In short, it runs like this: as §1
The test system of assay [12] is KCHSC. Nature of the assay: Herbicidal pre-emergence action (Table A10). The assay is classed as in vivo, Kochia scoparia. As to conditions: application rate 320 g/ha; visual grading after ca. 3 weeks. An outline of the steps:
as §1

Assay [13] concerns VERPE. Nature of the assay: Herbicidal pre-emergence action (Table A11). The format is in vivo, Veronica persica. Conditions: application rate 1280 g/ha; visual grading after ca. 3 weeks. In short, it runs like this:
as §1

For assay [14], the system named is DIGSA. Nature of the assay: Herbicidal pre-emergence action (Table A12). As to conditions: application rate 320 g/ha; visual grading after ca. 3 weeks. The assay is classed as in vivo, Digitaria sanguinalis. In short, it runs like this: as §1
Assay [15] has as its system ABUTH. Briefly: Herbicidal post-emergence action (Table B1). The assay is classed as in vivo, Abutilon theophrasti. Conditions: application rate 320 g/ha; treated at one-leaf stage; rated visually after about 3 weeks vs untreated controls (100% = plants have died, 0% = like control plants). In short, it runs like this: (§2)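 Visual rating of activity versus untreated plants about 3 weeks after treatment: 0% means no difference from controls, 100% means complete kill. Test weeds were raised from seed in sandy loam under controlled greenhouse conditions and sprayed at the one-leaf stage.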

Assay [16] deals with ALOMY. Briefly: Herbicidal post-emergence action (Table B2). Conditions: application rate 1280 g/ha; rated visually after about 3 weeks. The assay is classed as in vivo, Alopecurus myosuroides. In short, it runs like this: as §2
Assay [17] has as its system ECHCG. Nature of the assay: Herbicidal post-emergence action (Table B3). The assay is classed as in vivo, Echinochloa crus-galli. As to conditions: Echinochloa crus-galli, post-emergence, 504 h; application rate 320 g/ha; rated visually after about 3 weeks; read-out: post-emergence activity against ECHCG. An outline of the steps:
as §2

Assay [18] concerns KCHSC. Briefly: Herbicidal post-emergence action (Table B4). The assay is classed as in vivo, Kochia scoparia. Conditions: application rate 1280 g/ha; rated visually after about 3 weeks. The method, then:
(§3) Seeds of mono- and dicotyledonous weed plants were placed in plastic pots in sandy loam soil (doubly sown with in each case one species of mono- or dicotyledonous weed plants per pot), covered with soil and cultivated in a greenhouse under controlled growth conditions. 2 to 3 weeks after sowing, the test plants were treated at the one-leaf stage. […] After the test plants had been kept in the greenhouse under optimum growth conditions for about 3 weeks, the activity of the preparations was rated visually in comparison to untreated controls. For example, 100% activity = the plants have died, 0% activity = like control plants.

Assay [19] deals with LOLRI. Nature of the assay: Herbicidal post-emergence action (Table B5). The format is in vivo, Lolium rigidum. As to conditions: application rate 320 g/ha; rated visually after about 3 weeks. In short, it runs like this: as §2
Assay [20] deals with POAAN. Nature of the assay: Herbicidal post-emergence action (Table B7). As to conditions: application rate 320 g/ha. The format is in vivo, Poa annua. In short, it runs like this: as §2
Assay [21] relates to SETVI. Briefly: Herbicidal post-emergence action (Table B8). The format is in vivo, Setaria viridis. As to conditions: application rate 320 g/ha. In short, it runs like this: as §2
For assay [22], the system named is STEME. Briefly: Herbicidal post-emergence action (Table B9). The format is in vivo, Stellaria media. Conditions: application rate 320 g/ha. Here is the method: as §3
Assay [23] has as its system VERPE. Nature of the assay: Herbicidal post-emergence action (Table B10). The assay is classed as in vivo, Veronica persica. Conditions: application rate 320 g/ha. An outline of the steps: as §2
In assay [24] the test system is AMARE. Nature of the assay: Herbicidal post-emergence action (Table B11). The assay is classed as in vivo, Amaranthus retroflexus. Conditions: application rate 1280 g/ha. In short, it runs like this: as §2
Assay [25] concerns DIGSA. Briefly: Herbicidal post-emergence action (Table B12). The format is in vivo, Digitaria sanguinalis. Conditions: application rate 320 g/ha. The method, then: as §3

For `O=C1N(Cc2cc(F)c(F)cc2F)CCCC12CCCN(Cc1cc(F)c(F)cc1F)C2=O` (racemic) [I-213, 2,8-bis[(2,4,5-trifluorophenyl)methyl]-2,8-diazaspiro[5.5]undecane-1,7-dione], the “pre-emergence activity against ALOMY” value in the assay with ALOMY [1] was 90%. Moreover, in the assay with AMARE [2], the “pre-emergence activity against AMARE” value was found to be 90%. The “pre-emergence activity against DIGSA” value with DIGSA [3] was found to be 80%. Besides, the “pre-emergence activity against ECHCG” value with ECHCG [4] turned out to be 100%.
In the case of `O=C1N(Cc2cnc(Br)s2)CCCC12CCCN(Cc1cnc(Br)s1)C2=O` (single isomer, unassigned; (+)) [I-205, (+)-2,8-bis[(2-bromo-1,3-thiazol-5-yl)methyl]-2,8-diazaspiro[5.5]undecane-1,7-dione], in the assay on ABUTH [5], the “pre-emergence activity against ABUTH” value is on record as 90%. The “pre-emergence activity against ECHCG” value in the assay on ECHCG [6] is recorded as 90%. For the same compound, in the assay with LOLRI [7], the pest or weed control at 1280 g/ha came to 100%. For the same compound, the “pre-emergence activity against MATIN” value in the assay with MATIN was found to be 90%. In addition, in the assay on SETVI [8], the “pre-emergence activity against SETVI” value was 100%. The “pre-emergence activity against STEME” value with STEME [9] turned out to be 90%. For the same compound, the pest or weed control at 320 g/ha came to 100% in the assay with POAAN [10] and 90% in the assay with ECHCG [17]. Moreover, the “pre-emergence activity against AMARE” value in the assay with AMARE [11] was found to be 90%. The “pre-emergence activity against KCHSC” value in the assay on KCHSC [12] was 100%. Further, the “pre-emergence activity against VERPE” value with VERPE [13] came out at 100%. Besides, in the assay with DIGSA [14], the “pre-emergence activity against DIGSA” value came out at 90%. Further, the “post-emergence activity against ABUTH” value in the assay with ABUTH [15] was 90%. The “post-emergence activity against ALOMY” value with ALOMY [16] stood at 90%. For the same compound, the “post-emergence activity against KCHSC” value in the assay on KCHSC [18] turned out to be 90%. Moreover, the “post-emergence activity against LOLRI” value in the assay on LOLRI [19] was 90%. Further, the “post-emergence activity against POAAN” value with POAAN [20] is 90%. Moreover, the “post-emergence activity against SETVI” value in the assay on SETVI [21] came out at 90%. Further, the “post-emergence activity against STEME” value in the assay with STEME [22] is 90%. Moreover, the “post-emergence activity against VERPE” value in the assay with VERPE [23] worked out at 90%. The “post-emergence activity against AMARE” value in the assay with AMARE [24] stood at 90%. Besides, the “post-emergence activity against DIGSA” value in the assay with DIGSA [25] amounted to 90%.
